Data as given in the supplement of paper PMC10307832.

Key:
Assay in all cases: relative viability (nuclei count vs DMSO), 5 days (fraction); higher = more cells survive
[1] = compound: Cc1nc(Nc2ncc(C(=O)Nc3c(C)cccc3Cl)s2)cc(N2CCN(CCO)CC2)n1 [Dasatinib]
In short: (§1)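 MetaXpress counted nuclei in 4× images of lung cancer cell lines that had been fixed, permeabilised and Hoechst-stained in one step. Before that, cells in 1536-well plates were kept overnight at 37 °C, pinned with five √10-spaced library-drug doses on vehicle-anchored plates, and cultured 5 days without medium change. Viability takes treated-well nuclei over vehicle-well nuclei and uses the median across plates. Plates were accepted only at control CV below 25% and at least one doubling.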

[2] = compound: Cc1ccc(C(=O)Nc2cccc(C(F)(F)F)c2)cc1Nc1cncc(C(N)=O)c1 [ALW-II-49-7]
In short: as §1

[3] = compound: C1CC1C(=O)NC2=NNC3=C2C=CC(=C3)C4=CC(=CC=C4)C(=O)NC5CC5 [XMD13-2]
In short: as §1

Cell Line	relative viability ([1]; 0.005 µM)	relative viability ([1]; 0.01581 µM)	relative viability ([1]; 0.05 µM)	relative viability ([1]; 0.075 µM, anchor plate)	relative viability ([1]; 0.1581 µM)	relative viability ([1]; 0.5 µM)	relative viability ([2]; 0.08 µM)	relative viability ([2]; 0.253 µM)	relative viability ([2]; 0.8 µM)	relative viability ([2]; 2.53 µM)	relative viability ([2]; 8 µM)	relative viability ([3]; 0.05 µM)	relative viability ([3]; 0.1581 µM)	relative viability ([3]; 0.5 µM)	relative viability ([3]; 1.581 µM)	relative viability ([3]; 5 µM)
EPLC-272H	0.965	0.916	0.882	0.356	0.71	0.295	1.01	0.702	0.945	0.977	0.86	1.18	0.882	1.16	0.738	0.646
LXF-289	1.03	1.07	1.08	0.227	0.485	0.226	0.931	1.04	1.02	1.06	1.05	1.07	1.02	1.04	1.07	1.05
COR-L23	1.01	0.852	0.923	0.477	0.614	0.519	1.05	0.969	0.904	0.892	1.02	1.21	0.993	1.11	0.969	0.986
RERF-LC-KJ	1.01	0.928	0.944	0.781	0.841	0.704	1.02	1.06	0.997	0.911	0.939	1.08	0.942	1.05	0.938	0.912
NCI-H1755	0.964	0.868	0.747	0.44	0.544	0.363	0.975	1.03	1.02	0.968	0.897	1.07	0.997	0.994	0.985	1.04
PC-14	1.12	0.98	0.877	0.264	0.65	0.234	0.933	0.98	0.95	0.961	0.898	1.08	1.04	1.07	0.98	1.13
NCI-H322M	0.892	0.827	0.526	0.257	0.319	0.216	0.879	1.08	0.957	0.906	0.805	1.05	0.918	0.893	0.911	1.08
NCI-H1666	0.995	1	1.02	0.851	0.829	0.478	0.988	0.943	0.92	1.24	1.04	1.05	1.05	0.997	0.994	0.964
A-427	0.983	0.889	0.811	0.698	0.634	0.623	0.962	1.02	0.952	1.01	0.93	1.12	0.921	1.01	0.904	0.744
NCI-H2342	0.967	0.632	0.834	0.311	0.535	0.309	0.866	1.04	0.98	0.925	0.951	1.1	0.97	1.03	0.804	0.972
NCI-H1651	1.01	0.902	0.91	0.391	0.817	0.758	1.09	0.923	0.956	0.952	0.943	1.06	0.95	1.03	1.02	1.04
NCI-H1793	0.635	0.543	0.537	0.391	0.457	0.414	0.984	0.894	0.757	0.836	0.934	1.27	0.721	1.07	0.977	1.12
NCI-H1299	1.04	0.996	0.998	–	0.886	0.263	1.05	1.05	0.938	0.921	0.843	0.984	1.04	1.05	1.04	1.09
NCI-H520	0.785	0.592	0.518	0.21	0.257	0.243	1.04	0.987	0.987	0.94	0.964	1.09	1.09	1.08	0.851	0.643
NCI-H522	0.964	0.829	0.801	0.904	0.768	0.758	0.968	0.938	0.994	1.2	1.03	1.08	1.03	0.935	0.918	0.745
201T	0.991	0.766	0.82	0.583	0.602	0.417	0.979	1.04	0.915	1.02	0.838	1.02	1.03	1.02	1	1.02
NCI-H460	0.949	0.897	0.856	0.529	0.73	0.605	1	1.07	0.944	1.02	0.882	1.06	1.01	1.06	1.01	0.982

Cell Line	relative viability ([1]; 0.005 µM)	relative viability ([1]; 0.01581 µM)	relative viability ([1]; 0.05 µM)	relative viability ([1]; 0.075 µM, anchor plate)	relative viability ([1]; 0.1581 µM)	relative viability ([1]; 0.5 µM)	relative viability ([2]; 0.08 µM)	relative viability ([2]; 0.253 µM)	relative viability ([2]; 0.8 µM)	relative viability ([2]; 2.53 µM)	relative viability ([2]; 8 µM)	relative viability ([3]; 0.05 µM)	relative viability ([3]; 0.1581 µM)	relative viability ([3]; 0.5 µM)	relative viability ([3]; 1.581 µM)	relative viability ([3]; 5 µM)
NCI-H1623	0.97	0.851	0.935	0.542	0.767	0.564	0.934	0.903	0.947	0.967	0.91	0.948	1.03	0.879	0.89	0.965
NCI-H596	0.978	0.788	0.736	0.631	0.551	0.453	0.913	0.988	0.941	0.893	0.829	1.03	1.02	0.944	1.03	1.12
HARA	0.797	0.73	0.647	0.288	0.3	0.175	0.87	0.777	0.987	1.17	0.846	1.13	0.95	0.963	0.943	1.12
NCI-H2170	0.961	0.914	0.784	0.61	0.585	0.378	1	0.969	0.973	0.908	0.966	1.03	0.954	0.986	1.01	0.881
NCI-H1648	1.26	0.938	1.03	–	0.405	0.192	0.633	0.839	0.676	0.683	0.797	1.14	0.764	0.84	0.94	0.814
NCI-H1703	0.482	0.457	0.311	–	0.177	0.148	0.982	0.981	0.734	0.429	0.434	1.29	1.33	1.05	0.764	1.06
NCI-H2126	0.98	0.864	0.945	0.643	0.814	0.403	0.918	1.03	1.02	0.926	0.992	1.02	0.949	1.02	1.03	1.03
HCC-827	1.05	0.926	1.04	0.324	0.953	0.126	1.02	1.03	1.02	1.02	1.02	1.06	1.01	1.02	0.973	0.944
ABC-1	0.905	0.862	0.785	0.641	0.564	0.654	0.938	0.999	0.923	0.973	0.941	1.02	0.873	1.01	0.745	0.472
NCI-H650	0.876	0.936	0.861	0.475	0.712	0.5	0.992	0.997	0.841	1.03	0.647	1.1	0.963	1.04	0.845	1.03
BEN	0.776	0.552	0.487	0.322	0.423	0.376	1.04	1.01	0.728	0.825	0.902	1.07	1.01	0.992	0.874	0.933
ChaGo-K-1	0.967	0.976	0.897	0.597	0.859	0.686	1.03	0.96	0.909	0.974	1.01	1.02	0.99	1.04	1.03	0.93
NCI-H23	0.923	0.857	0.858	0.866	0.6	0.482	0.936	0.978	0.907	1.06	0.865	1.04	0.907	1.04	0.801	1.07
NCI-H1975	0.83	0.768	0.78	0.378	0.545	0.282	0.956	0.996	0.757	0.855	0.841	1.23	1.01	0.98	1.1	0.961
COR-L 105	0.847	0.692	0.625	0.386	0.39	0.326	0.822	1.05	0.968	0.942	0.893	1.25	1.08	0.911	0.947	0.858
LK-2	0.943	0.569	0.587	0.311	0.297	0.257	1.03	0.971	1	–	0.926	1.24	0.904	1.05	0.915	0.966
